Data published in paper PMC11062922 (Nature Chemical Biology, 2023).

Experiments:
Test in all cases: Kinobeads competition binding profiling, two doses (100 nM and 1 µM);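 further: inhibitor preincubated 45 min at 4 °C in cell lysate, then bead pulldown. Bound protein quantified by label-free mass spectrometry relative to DMSO vehicle control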
[1] = target: T1, endogenous kinases and other proteins enriched by Kinobeads from mixed lysates of K-562, COLO-205, MV-4-11, SK-N-BE(2) and OVCAR-8 (Homo sapiens, UniProt Q9Y463); settings: DYRK1B
T1 construct: endogenous in cells

[2] = target: T2, endogenous kinases and other proteins enriched by Kinobeads from mixed lysates of K-562, COLO-205, MV-4-11, SK-N-BE(2) and OVCAR-8 (Homo sapiens, UniProt Q8TD19); settings: NEK9
T2 construct: endogenous in cells

[3] = target: T3, endogenous kinases and other proteins enriched by Kinobeads from mixed lysates of K-562, COLO-205, MV-4-11, SK-N-BE(2) and OVCAR-8 (Homo sapiens, UniProt Q15418); settings: RSK1(Kin.Dom.1-N-terminal)
T3 construct: endogenous in cells

[4] = target: T4, endogenous kinases and other proteins enriched by Kinobeads from mixed lysates of K-562, COLO-205, MV-4-11, SK-N-BE(2) and OVCAR-8 (Homo sapiens, UniProt O60674); settings: JAK2(JH1domain-catalytic)
T4 construct: endogenous in cells

[5] = target: T5, endogenous kinases and other proteins enriched by Kinobeads from mixed lysates of K-562, COLO-205, MV-4-11, SK-N-BE(2) and OVCAR-8 (Homo sapiens, UniProt Q13131); settings: AMPK-alpha1
T5 construct: endogenous in cells

[6] = target: T6, endogenous kinases and other proteins enriched by Kinobeads from mixed lysates of K-562, COLO-205, MV-4-11, SK-N-BE(2) and OVCAR-8 (Homo sapiens, UniProt Q13163); settings: MEK5
T6 construct: endogenous in cells

[7] = target: T7, endogenous kinases and other proteins enriched by Kinobeads from mixed lysates of K-562, COLO-205, MV-4-11, SK-N-BE(2) and OVCAR-8 (Homo sapiens, UniProt Q12866); settings: MERTK
T7 construct: endogenous in cells

[8] = target: T8, endogenous kinases and other proteins enriched by Kinobeads from mixed lysates of K-562, COLO-205, MV-4-11, SK-N-BE(2) and OVCAR-8 (Homo sapiens, UniProt P22694); settings: PKAC-beta
T8 construct: endogenous in cells

[9] = target: T9, endogenous kinases and other proteins enriched by Kinobeads from mixed lysates of K-562, COLO-205, MV-4-11, SK-N-BE(2) and OVCAR-8 (Homo sapiens, UniProt Q9UHD2); settings: TBK1
T9 construct: endogenous in cells

[10] = target: T10, endogenous kinases and other proteins enriched by Kinobeads from mixed lysates of K-562, COLO-205, MV-4-11, SK-N-BE(2) and OVCAR-8 (Homo sapiens, UniProt O75716); settings: STK16
T10 construct: endogenous in cells

[11] = target: T11, endogenous kinases and other proteins enriched by Kinobeads from mixed lysates of K-562, COLO-205, MV-4-11, SK-N-BE(2) and OVCAR-8 (Homo sapiens, UniProt Q13627); settings: DYRK1A
T11 construct: endogenous in cells

[12] = target: T12, endogenous kinases and other proteins enriched by Kinobeads from mixed lysates of K-562, COLO-205, MV-4-11, SK-N-BE(2) and OVCAR-8 (Homo sapiens, UniProt P80192); settings: MLK1
T12 construct: endogenous in cells

[13] = target: T13, endogenous kinases and other proteins enriched by Kinobeads from mixed lysates of K-562, COLO-205, MV-4-11, SK-N-BE(2) and OVCAR-8 (Homo sapiens, UniProt O14578); settings: CIT
T13 construct: to maximize the representation of endogenous proteins; endogenous in cells

[14] = target: T14, endogenous kinases and other proteins enriched by Kinobeads from mixed lysates of K-562, COLO-205, MV-4-11, SK-N-BE(2) and OVCAR-8 (Homo sapiens, UniProt P29597); settings: TYK2(JH2domain-pseudokinase)
T14 construct: endogenous in cells

[15] = target: T15, endogenous kinases and other proteins enriched by Kinobeads from mixed lysates of K-562, COLO-205, MV-4-11, SK-N-BE(2) and OVCAR-8 (Homo sapiens, UniProt O43353); settings: read-out: Lestaurtinib Drugmatrix value, Gene Name RIPK2; target RIPK2; one Lestaurtinib control experiment/replicate (R1-R3)
T15 construct: to maximize the representation of endogenous proteins; endogenous in cells

[16] = target: T16, endogenous kinases and other proteins enriched by Kinobeads from mixed lysates of K-562, COLO-205, MV-4-11, SK-N-BE(2) and OVCAR-8 (Homo sapiens, UniProt P42680); settings: read-out: Lestaurtinib Drugmatrix value, Gene Name TEC; target TEC; one Lestaurtinib control experiment/replicate (R1-R3)
T16 construct: to maximize the representation of endogenous proteins; endogenous in cells

[17] = system: endogenous kinases and other proteins enriched by Kinobeads from mixed lysates of K-562, COLO-205, MV-4-11, SK-N-BE(2) and OVCAR-8; set-up: species or system human
[18] = target: T17, endogenous kinases and other proteins enriched by Kinobeads from mixed lysates of K-562, COLO-205, MV-4-11, SK-N-BE(2) and OVCAR-8 (Homo sapiens, UniProt Q13882); settings: read-out: Lestaurtinib Drugmatrix value, Gene Name PTK6; target PTK6; one Lestaurtinib control experiment/replicate (R1-R3)
T17 construct: endogenous in cells

[19] = target: T18, endogenous kinases and other proteins enriched by Kinobeads from mixed lysates of K-562, COLO-205, MV-4-11, SK-N-BE(2) and OVCAR-8 (Homo sapiens, UniProt P42345); settings: read-out: Lestaurtinib Drugmatrix value (apparent Kd), Gene Name MTOR; target MTOR; each column = one Lestaurtinib control run_replicate
T18 construct: endogenous in cells

[20] = target: T19, endogenous kinases and other proteins enriched by Kinobeads from mixed lysates of K-562, COLO-205, MV-4-11, SK-N-BE(2) and OVCAR-8 (Homo sapiens, UniProt Q8WZ42); settings: read-out: Lestaurtinib Drugmatrix value, Gene Name TTN; target TTN; one Lestaurtinib control experiment/replicate (R1-R3)
T19 construct: endogenous in cells

[21] = target: T20, endogenous kinases and other proteins enriched by Kinobeads from mixed lysates of K-562, COLO-205, MV-4-11, SK-N-BE(2) and OVCAR-8 (Homo sapiens, UniProt Q05397); settings: read-out: Lestaurtinib Drugmatrix value, Gene Name PTK2
T20 construct: endogenous in cells

T13 sequence (O14578 whole entry): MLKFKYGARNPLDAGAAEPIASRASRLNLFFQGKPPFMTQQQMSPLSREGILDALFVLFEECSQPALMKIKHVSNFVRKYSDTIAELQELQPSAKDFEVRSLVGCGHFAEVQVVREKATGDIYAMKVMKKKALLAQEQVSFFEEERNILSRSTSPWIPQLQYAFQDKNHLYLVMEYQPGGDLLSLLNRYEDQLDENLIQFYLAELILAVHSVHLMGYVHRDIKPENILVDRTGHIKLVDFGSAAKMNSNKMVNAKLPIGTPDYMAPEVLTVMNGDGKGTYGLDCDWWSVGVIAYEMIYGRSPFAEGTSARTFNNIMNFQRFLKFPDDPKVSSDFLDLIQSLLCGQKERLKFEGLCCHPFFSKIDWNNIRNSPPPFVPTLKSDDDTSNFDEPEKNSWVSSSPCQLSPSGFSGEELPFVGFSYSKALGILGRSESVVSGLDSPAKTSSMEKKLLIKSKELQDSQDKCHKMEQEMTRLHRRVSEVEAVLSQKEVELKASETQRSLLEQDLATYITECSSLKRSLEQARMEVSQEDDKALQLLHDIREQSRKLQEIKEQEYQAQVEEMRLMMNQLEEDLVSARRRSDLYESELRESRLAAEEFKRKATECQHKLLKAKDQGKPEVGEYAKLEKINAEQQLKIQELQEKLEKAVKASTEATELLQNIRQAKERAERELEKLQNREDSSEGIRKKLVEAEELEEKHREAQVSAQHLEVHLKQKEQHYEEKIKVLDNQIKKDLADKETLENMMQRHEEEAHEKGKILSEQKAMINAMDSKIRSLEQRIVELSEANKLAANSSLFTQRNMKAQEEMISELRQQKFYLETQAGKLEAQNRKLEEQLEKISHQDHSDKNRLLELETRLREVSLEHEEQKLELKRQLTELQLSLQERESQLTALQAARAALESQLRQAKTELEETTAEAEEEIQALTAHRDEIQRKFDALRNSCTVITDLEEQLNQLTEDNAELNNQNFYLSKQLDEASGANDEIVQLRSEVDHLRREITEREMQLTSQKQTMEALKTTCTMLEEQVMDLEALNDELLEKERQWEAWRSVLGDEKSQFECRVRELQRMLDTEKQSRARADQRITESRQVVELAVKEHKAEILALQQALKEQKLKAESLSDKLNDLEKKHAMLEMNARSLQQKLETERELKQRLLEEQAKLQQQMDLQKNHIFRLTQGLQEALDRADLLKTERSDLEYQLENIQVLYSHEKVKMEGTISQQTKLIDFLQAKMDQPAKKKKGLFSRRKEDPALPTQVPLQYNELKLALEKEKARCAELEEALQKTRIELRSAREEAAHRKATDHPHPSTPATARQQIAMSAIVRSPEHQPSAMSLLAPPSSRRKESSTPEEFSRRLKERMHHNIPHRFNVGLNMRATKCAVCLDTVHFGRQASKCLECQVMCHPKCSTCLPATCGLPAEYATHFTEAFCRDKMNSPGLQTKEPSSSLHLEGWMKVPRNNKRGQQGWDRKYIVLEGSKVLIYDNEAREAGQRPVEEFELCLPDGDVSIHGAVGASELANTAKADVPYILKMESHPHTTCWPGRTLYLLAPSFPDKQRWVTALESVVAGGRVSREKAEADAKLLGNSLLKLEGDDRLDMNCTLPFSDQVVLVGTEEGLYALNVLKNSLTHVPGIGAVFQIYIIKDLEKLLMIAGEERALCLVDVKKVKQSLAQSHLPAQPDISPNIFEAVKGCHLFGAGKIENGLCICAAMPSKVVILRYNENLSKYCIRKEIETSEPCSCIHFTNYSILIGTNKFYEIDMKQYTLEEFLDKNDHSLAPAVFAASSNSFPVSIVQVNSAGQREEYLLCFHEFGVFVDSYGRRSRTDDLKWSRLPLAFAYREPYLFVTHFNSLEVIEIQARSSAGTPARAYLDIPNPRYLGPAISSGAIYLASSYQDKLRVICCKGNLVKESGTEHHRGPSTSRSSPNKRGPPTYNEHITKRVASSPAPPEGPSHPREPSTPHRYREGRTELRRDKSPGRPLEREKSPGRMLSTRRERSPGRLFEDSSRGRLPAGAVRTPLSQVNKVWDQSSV
T6 sequence (Q13163 whole entry): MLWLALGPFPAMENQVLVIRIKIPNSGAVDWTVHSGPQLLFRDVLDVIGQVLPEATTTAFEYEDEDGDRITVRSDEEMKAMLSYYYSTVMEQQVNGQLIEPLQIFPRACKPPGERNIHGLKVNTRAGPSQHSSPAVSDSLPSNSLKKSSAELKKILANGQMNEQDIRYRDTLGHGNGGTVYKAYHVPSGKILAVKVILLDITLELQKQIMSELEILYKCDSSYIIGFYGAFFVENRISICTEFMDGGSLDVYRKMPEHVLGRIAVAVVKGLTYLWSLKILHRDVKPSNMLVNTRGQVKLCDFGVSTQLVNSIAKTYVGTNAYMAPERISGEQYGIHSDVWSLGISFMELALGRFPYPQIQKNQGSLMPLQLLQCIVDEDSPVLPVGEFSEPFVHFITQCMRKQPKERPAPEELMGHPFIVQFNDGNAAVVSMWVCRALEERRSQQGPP
T5 sequence (Q13131 whole entry): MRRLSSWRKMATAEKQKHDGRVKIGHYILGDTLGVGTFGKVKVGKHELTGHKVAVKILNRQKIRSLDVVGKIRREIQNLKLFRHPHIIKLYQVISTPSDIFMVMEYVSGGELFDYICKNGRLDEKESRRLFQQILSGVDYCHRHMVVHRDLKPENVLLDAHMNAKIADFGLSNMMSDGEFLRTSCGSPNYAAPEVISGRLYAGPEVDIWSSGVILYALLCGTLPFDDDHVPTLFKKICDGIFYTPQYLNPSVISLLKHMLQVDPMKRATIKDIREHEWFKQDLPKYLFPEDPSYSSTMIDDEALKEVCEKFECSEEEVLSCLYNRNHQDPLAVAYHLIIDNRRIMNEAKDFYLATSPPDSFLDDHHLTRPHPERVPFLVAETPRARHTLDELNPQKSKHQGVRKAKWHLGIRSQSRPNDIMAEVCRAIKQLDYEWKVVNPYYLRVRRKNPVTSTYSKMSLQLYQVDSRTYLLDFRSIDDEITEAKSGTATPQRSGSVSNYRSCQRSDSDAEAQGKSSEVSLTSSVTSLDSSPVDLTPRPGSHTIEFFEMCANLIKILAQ
T4 sequence (O60674 whole entry): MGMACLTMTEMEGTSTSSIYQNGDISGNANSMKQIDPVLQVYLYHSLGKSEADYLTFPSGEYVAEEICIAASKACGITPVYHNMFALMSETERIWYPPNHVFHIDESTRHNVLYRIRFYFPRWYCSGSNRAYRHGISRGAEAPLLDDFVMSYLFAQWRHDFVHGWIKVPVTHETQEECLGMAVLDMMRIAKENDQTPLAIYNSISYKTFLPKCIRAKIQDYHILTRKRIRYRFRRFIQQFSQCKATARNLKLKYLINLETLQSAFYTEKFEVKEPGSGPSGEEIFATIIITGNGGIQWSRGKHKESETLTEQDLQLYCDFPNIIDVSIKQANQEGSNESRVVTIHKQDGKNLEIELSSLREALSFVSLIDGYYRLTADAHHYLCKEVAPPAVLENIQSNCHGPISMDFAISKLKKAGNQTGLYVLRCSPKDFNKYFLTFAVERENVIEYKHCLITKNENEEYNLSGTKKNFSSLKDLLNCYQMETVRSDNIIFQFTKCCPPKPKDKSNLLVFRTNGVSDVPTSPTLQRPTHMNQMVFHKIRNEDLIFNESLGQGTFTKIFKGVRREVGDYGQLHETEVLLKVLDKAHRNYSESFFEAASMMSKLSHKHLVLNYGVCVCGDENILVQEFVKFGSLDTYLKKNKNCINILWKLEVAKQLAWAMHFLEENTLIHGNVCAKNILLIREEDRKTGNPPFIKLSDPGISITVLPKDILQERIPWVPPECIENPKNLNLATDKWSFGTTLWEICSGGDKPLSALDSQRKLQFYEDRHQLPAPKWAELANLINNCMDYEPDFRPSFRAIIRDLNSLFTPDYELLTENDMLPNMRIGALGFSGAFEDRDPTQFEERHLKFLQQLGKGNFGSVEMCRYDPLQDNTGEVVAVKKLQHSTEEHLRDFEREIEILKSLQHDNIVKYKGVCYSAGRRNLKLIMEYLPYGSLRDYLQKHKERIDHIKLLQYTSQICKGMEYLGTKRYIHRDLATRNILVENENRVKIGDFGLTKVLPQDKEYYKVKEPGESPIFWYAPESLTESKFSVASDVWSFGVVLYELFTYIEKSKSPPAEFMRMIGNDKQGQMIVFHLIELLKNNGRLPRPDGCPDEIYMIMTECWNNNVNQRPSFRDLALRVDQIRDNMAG
T10 sequence (O75716 whole entry): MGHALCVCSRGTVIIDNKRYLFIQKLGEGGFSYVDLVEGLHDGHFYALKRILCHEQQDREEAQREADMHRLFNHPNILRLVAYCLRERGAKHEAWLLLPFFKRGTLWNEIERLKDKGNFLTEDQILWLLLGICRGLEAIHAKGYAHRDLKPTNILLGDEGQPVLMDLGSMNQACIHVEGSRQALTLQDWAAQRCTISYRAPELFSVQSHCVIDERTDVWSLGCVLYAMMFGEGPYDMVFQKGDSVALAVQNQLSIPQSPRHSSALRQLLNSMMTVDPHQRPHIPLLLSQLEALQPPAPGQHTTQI
T17 sequence (Q13882 whole entry): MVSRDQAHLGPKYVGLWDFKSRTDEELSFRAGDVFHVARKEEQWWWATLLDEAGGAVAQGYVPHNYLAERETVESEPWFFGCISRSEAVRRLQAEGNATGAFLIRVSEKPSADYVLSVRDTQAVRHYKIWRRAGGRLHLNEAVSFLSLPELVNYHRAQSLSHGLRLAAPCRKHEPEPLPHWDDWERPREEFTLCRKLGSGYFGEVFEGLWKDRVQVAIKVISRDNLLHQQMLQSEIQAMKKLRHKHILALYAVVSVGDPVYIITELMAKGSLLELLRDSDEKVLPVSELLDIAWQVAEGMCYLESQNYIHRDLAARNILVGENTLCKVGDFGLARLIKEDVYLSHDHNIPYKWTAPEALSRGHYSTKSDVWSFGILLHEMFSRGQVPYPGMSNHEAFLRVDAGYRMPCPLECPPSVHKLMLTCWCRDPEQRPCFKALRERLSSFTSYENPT

COc1cc(Nc2ncc3c(C)nc(-c4cc5ccccc5[nH]4)n3n2)cc(OC)c1OC [GW869516X]
Kinobeads Data [1]: no target
Kinobeads Data [2]: no target
Kinobeads Data [3]: no target
Kinobeads Data [4]: no target
Kinobeads Data [5]: no target
Kinobeads Data [6]: no target
Kinobeads Data [7]: no target
Kinobeads Data [8]: no target
Kinobeads Data [9]: no target
Kinobeads Data [10]: no target
Kinobeads Data [11]: no target
Kinobeads Data [12]: no target
Kinobeads Data [13]: no target
Kinobeads Data [14]: no target

C[C@]12O[C@H](C[C@]1(O)CO)n1c3ccccc3c3c4c(c5c6ccccc6n2c5c31)CNC4=O [Lestaurtinib]
potency estimated from few doses [15]: 810 nM
potency estimated from few doses [16]: 895 nM
number of targets in the Kinobead assay [17]: 76
potency estimated from few doses [18]: 533 nM
potency estimated from few doses [19]: 482 nM
potency estimated from few doses [20]: 737 nM
potency estimated from few doses [21]: 345 nM
